The target in series [1] is T1, acid ceramidase (Homo sapiens, UniProt Q13510).
T1 construct: Cell lysates overexpressing acid ceramidase were used as the enzyme source; expressed in transfected cells
T1 sequence (Q13510 22-395): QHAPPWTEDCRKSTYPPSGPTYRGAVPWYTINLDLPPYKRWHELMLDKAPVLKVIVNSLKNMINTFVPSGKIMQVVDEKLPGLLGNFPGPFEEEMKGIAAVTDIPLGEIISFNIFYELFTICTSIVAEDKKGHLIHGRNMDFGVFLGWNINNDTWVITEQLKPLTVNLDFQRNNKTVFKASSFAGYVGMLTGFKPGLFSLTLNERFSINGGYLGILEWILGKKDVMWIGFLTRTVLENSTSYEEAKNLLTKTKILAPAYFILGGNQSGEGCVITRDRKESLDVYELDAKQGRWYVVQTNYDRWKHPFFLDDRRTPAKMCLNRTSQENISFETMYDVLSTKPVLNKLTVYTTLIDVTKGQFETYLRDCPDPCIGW
The experiment in a line: Acid ceramidase inhibition, biochemical fluorescent assay with cell lysates overexpressing acid ceramidase, substrate Rbm14-12. The following applies: substrate Rbm14-12 6.3 μM. In short, it runs like this: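 Lysate of cells overexpressing acid ceramidase (10 μg protein) preincubated with compound dose series 1 hr at RT in 25 mM NaAC, 100 mM NaCl, pH 4.5, then reacted 1 hr with 6.3 μM Rbm14-12. Stopped with NaIO4/glycine buffer pH 10.6, fluorescence ex360/em446; IC50 by four-parameter fit.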

The nature of series [2]: Compound solubility in water.
The mark [3] stands for this setting: pH 4.5, 1 hr preincubation at RT.

pIC50: −log10 of the molar value. ≈ marks a conversion by molar mass, not a printed value.

What is called pIC50 is −log10 of the IC50, conventionally taken in molar units. The term solubility denotes the dissolved amount per volume that the medium holds. A high value points to much dissolved substance. Consider `CN1CCN(CCOc2nc3ccccc3n2C(=O)NCC#Cc2ccccc2)CC1` [Example 348, 2-(2-(4-Methylpiperazin-1-yl)ethoxy)-N-(3-phenylprop-2-yn-1-yl)-1H-benzo[d]imidazole-1-carboxamide], for which the pIC50 in series [1] (setting [3]) was over 6.70. In addition, in series [2], the solubility was found to be 0.008 mg/mL (≈ 19.2 µM).

Compound `CC(C)CNC(=O)n1c(=O)n(C)c2ccc(-c3cccnc3)cc21` [Example 123, N-iso-Butyl-3-methyl-2-oxo-6-(pyridin-3-yl)-2,3-dihydro-1H-benzo[d]imidazole-1-carboxamide] had a pIC50 in series [1] (setting [3]) of under 6.00. In addition, the solubility in series [2] is 0.0006 mg/mL (≈ 1.85 µM).

In series [1] (pH 4.5), `COc1nc2cnc(N3CCOCC3)cc2n1C(=O)NCCCc1ccccc1` [Example 213a, 2-Methoxy-6-morpholino-N-(3-phenylpropyl)-1H-imidazo[4,5-c]pyridine-1-carboxamide] showed a pIC50 of over 6.70. This compound showed a solubility in series [2] of 0.009 mg/mL (≈ 22.8 µM).

In turn, `CN1C2CC1CN(c1cccc3c1ncn3C(=O)NCCCc1ccccc1)C2` [Example 243, 4-(6-Methyl-3,6-diazabicyclo[3.1.1]heptan-3-yl)-N-(3-phenylpropyl)-1H-benzo[d]imidazole-1-carboxamide] had a pIC50 in series [1] (pH 4.5) of over 6.70. The solubility in series [2] was found to be 0.028 mg/mL (≈ 71.9 µM).

In the case of `COc1nc2cc(N3CCOCC3)ccc2n1C(=O)NCCc1ccccc1` [Example 29b, 2-methoxy-5-morpholino-N-phenethyl-1H-benzo[d]imidazole-1-carboxamide], the pIC50 in series [1] (setting [3]) was 6.00 to 6.70. The compound also displayed a solubility in series [2] of 0.0036 mg/mL (≈ 9.46 µM).

Consider `CC(C)CCNC(=O)n1cnc2c(N3CCN4CCCC4C3)cccc21` (stereo not shown) [Example 158, 4-(Hexahydropyrrolo[1,2-a]pyrazin-2(1H)-yl)-N-iso-pentyl-1H-benzo[d]imidazole-1-carboxamide], for which the pIC50 in series [1] (setting [3]) was 6.00 to 6.70. This compound gave a solubility in series [2] of 0.017 mg/mL (≈ 47.8 µM).

`COc1nc2cc(N3CCOCC3)ccc2n1C(=O)NCCC1CC1C(F)(F)F` (stereo not shown) [Example 230b, 2-methoxy-5-morpholino-N-(2-(2-(trifluoromethyl)cyclopropyl)-ethyl)-1H-benzo[d]imidazole-1-carboxamide] had a pIC50 in series [1] (pH 4.5) of 6.00 to 6.70. For the same compound, the concentration in solution in series [2] (solubility) was 0.032 mg/mL (≈ 77.6 µM).

With `CCCCNC(=O)n1cnc2ccc(OC(F)(F)F)cc21` [Example 70a, N-Butyl-6-(trifluoromethoxy)-1H-benzo[d]imidazole-1-carboxamide], in series [1] (setting [3]), the negative-log IC50 (pIC50) is over 6.70. In addition, the concentration in solution in series [2] (solubility) came to 0.0093 mg/mL (≈ 30.9 µM).

`CN1[C@@H]2CC[C@H]1CN(c1cccc3c1ncn3C(=O)NCCCc1ccccc1)C2` [Example 240, 4-((1R,5S)-8-Methyl-3,8-diazabicyclo[3.2.1]octan-3-yl)-N-(3-phenylpropyl)-1H-benzo[d]imidazole-1-carboxamide] had a pIC50 in series [1] (pH 4.5) of 6.00 to 6.70. Moreover, in series [2], the concentration in solution (solubility) was 0.028 mg/mL (≈ 69.4 µM).

On to `Cc1ccc(CCNC(=O)n2cnc3ccccc32)cc1` [Example 108, N-(4-Methylphenethyl)-1H-benzo[d]imidazole-1-carboxamide], for which the pIC50 in series [1] (setting [3]) is over 6.70. In addition, in series [2], the concentration in solution (solubility) came to 0.0068 mg/mL (≈ 24.3 µM).

Regarding `O=C(NCCCC1CC1)n1cnc2c(N3CCOCC3)cccc21` [Example 141, N-(3-Cyclopropylpropyl)-4-morpholino-1H-benzo[d]imidazole-1-carboxamide], the pIC50 in series [1] (setting [3]) is over 6.70. The compound further came in with a solubility in series [2] of 0.015 mg/mL (≈ 45.7 µM).

Turning to `CN1CC(c2cccc3c2ncn3C(=O)NCCCc2ccccc2)C1` [Example 270, 4-(1-Methylazetidin-3-yl)-N-(3-phenylpropyl)-1H-benzo[d]imidazole-1-carboxamide], in series [1] (pH 4.5), the pIC50 is over 6.70. Further, the concentration in solution in series [2] (solubility) came to 0.032 mg/mL (≈ 91.8 µM).

In series [1] (pH 4.5), `CN1CCN(c2cccc3c2ncn3C(=O)NCCc2ccccc2)CC1` [Example 324, 4-(4-Methylpiperazin-1-yl)-N-phenethyl-1H-benzo[d]imidazole-1-carboxamide] gave a pIC50 of 6.00 to 6.70. Moreover, the solubility in series [2] is 0.011 mg/mL (≈ 30.3 µM).

On to `O=C(NCCc1ccccc1)n1c(Oc2ccccc2)nc2ccccc21` [Example 37, N-Phenethyl-2-phenoxy-1H-benzo[d]imidazole-1-carboxamide], for which the pIC50 in series [1] (setting [3]) was over 6.70. The compound further registered a solubility in series [2] of 0.0002 mg/mL (≈ 0.56 µM).

On to `CCCCNC(=O)n1c(=O)n(C)c2nc(-c3cncnc3)ccc21` [Example 84, N-Butyl-3-methyl-2-oxo-5-(pyrimidin-5-yl)-2,3-dihydro-1H-imidazo[4,5-b]pyridine-1-carboxamide], for which, in series [1] (setting [3]), the pIC50 is 6.00 to 6.70. The compound also registered a solubility in series [2] of 0.0009 mg/mL (≈ 2.76 µM).

In turn, `COc1nc2ccc(-c3cccnc3)cc2n1C(=O)NCCc1ccccc1` [Example 30b, 2-methoxy-N-phenethyl-6-(pyridin-3-yl)-1H-benzo[d]imidazole-1-carboxamide] showed a pIC50 in series [1] (setting [3]) of over 6.70. In series [2], this compound gave a solubility of 0.0039 mg/mL (≈ 10.5 µM).

Turning to `CC(C)CCNC(=O)n1cnc2c(N3CCN(C)C(=O)C3)cccc21` [Example 163, N-iso-Pentyl-4-(4-methyl-3-oxopiperazin-1-yl)-1H-benzo[d]imidazole-1-carboxamide], the pIC50 in series [1] (pH 4.5) was 6.00 to 6.70. Moreover, the concentration in solution in series [2] (solubility) was 0.014 mg/mL (≈ 40.8 µM).

In series [1] (setting [3]), `CC(C)CNC(=O)n1cnc2c(C(F)(F)F)c(-c3cncnc3)ccc21` [Example 76, N-iso-Butyl-5-(pyrimidin-5-yl)-4-(trifluoromethyl)-1H-benzo[d]imidazole-1-carboxamide] had a pIC50 of over 6.70. Moreover, the concentration in solution in series [2] (solubility) came to 0.01 mg/mL (≈ 27.5 µM).

As to `CN1CCN(c2cccc3c2ncn3C(=O)NCC#Cc2cccc(F)c2)CC1` [Example 337, N-(3-(3-Fluorophenyl)prop-2-yn-1-yl)-4-(4-methylpiperazin-1-yl)-1H-benzo[d]imidazole-1-carboxamide], the negative-log IC50 (pIC50) in series [1] (setting [3]) was over 6.70. Besides, the solubility in series [2] is 0.015 mg/mL (≈ 38.3 µM).

For the compound `COc1nc2cc(-c3cncnc3)ccc2n1C(=O)NCC(C)C` [Example 81b, N-iso-butyl-2-methoxy-5-(pyrimidin-5-yl)-1H-benzo[d]imidazole-1-carboxamide], the pIC50 in series [1] (setting [3]) is 6.00 to 6.70. This compound also gave a solubility in series [2] of 0.027 mg/mL (≈ 83 µM).

Turning to `O=C(NCCOc1ccc(F)cc1)n1cnc2ccccc21` [Example 47, N-(2-(4-Fluorophenoxy)ethyl)-1H-benzo[d]imidazole-1-carboxamide], the pIC50 in series [1] (setting [3]) was over 6.70. For the same compound, the solubility in series [2] came to 0.0043 mg/mL (≈ 14.4 µM).

For `O=C(NCCOc1ccccc1)n1cnc2ccccc21` [Example 18, N-(2-Phenoxyethyl)-1H-benzo[d]imidazole-1-carboxamide], in series [1] (setting [3]), the pIC50 was over 6.70. This compound also had a solubility in series [2] of 0.002 mg/mL (≈ 7.11 µM).

In series [1] (pH 4.5), `CC(C)C#CCNC(=O)n1cnc2c(N3CCC4(CCCN4C)CC3)cccc21` [Example 311, 4-(1-Methyl-1,8-diazaspiro[4.5]decan-8-yl)-N-(4-methylpent-2-yn-1-yl)-1H-benzo[d]imidazole-1-carboxamide] showed a pIC50 of over 6.70. Moreover, in series [2], the solubility stood at 0.031 mg/mL (≈ 78.8 µM).

Compound `O=C(NCCc1ccccc1)n1cnc2ccc(C(F)(F)F)cc21` [Example 26b, N-phenethyl-6-(trifluoromethyl)-1H-benzo[d]imidazole-1-carboxamide] gave a pIC50 in series [1] (setting [3]) of over 6.70. For the same compound, the solubility in series [2] came to 0.0026 mg/mL (≈ 7.8 µM).

On to `CC(C)C#CCNC(=O)n1cnc2c(N3CCC4(CC3)CCN4C)cccc21` [Example 313, 4-(1-Methyl-1,7-diazaspiro[3.5]nonan-7-yl)-N-(4-methylpent-2-yn-1-yl)-1H-benzo[d]imidazole-1-carboxamide], for which, in series [1] (pH 4.5), the negative logarithm of the IC50 (pIC50) is over 6.70. The solubility in series [2] turned out to be 0.029 mg/mL (≈ 76.4 µM).

`CC(C)CCNC(=O)n1cnc2c(N3CCC4(CC3)COC4)cccc21` [Example 175, N-iso-Pentyl-4-(2-oxa-7-azaspiro[3.5]nonan-7-yl)-1H-benzo[d]imidazole-1-carboxamide] gave a pIC50 in series [1] (pH 4.5) of 6.00 to 6.70. The amount in solution in series [2] (solubility) came to 0.018 mg/mL (≈ 50.5 µM).

In the case of `O=C1CCC2CN(c3cccc4c3ncn4C(=O)NCCCc3ccccc3)CCN12` (stereo not shown) [Example 275, 4-(6-Oxohexahydropyrrolo[1,2-a]pyrazin-2(1H)-yl)-N-(3-phenylpropyl)-1H-benzo[d]imidazole-1-carboxamide], the pIC50 in series [1] (pH 4.5) is over 6.70. For the same compound, the solubility in series [2] worked out at 0.015 mg/mL (≈ 35.9 µM).

In series [1] (pH 4.5), `CN1CCN(c2cccc3c2ncn3C(=O)NCCCc2ccccc2)CC12CC2` [Example 250, 4-(4-Methyl-4,7-diazaspiro[2.5]octan-7-yl)-N-(3-phenylpropyl)-1H-benzo[d]imidazole-1-carboxamide] had a pIC50 of over 6.70. In series [2], this compound showed a solubility of 0.023 mg/mL (≈ 57 µM).

In the case of `CN1CC2CC(C1)N2c1cccc2c1ncn2C(=O)NCCCc1ccccc1` [Example 245, 4-(3-Methyl-3,6-diazabicyclo[3.1.1]heptan-6-yl)-N-(3-phenylpropyl)-1H-benzo[d]imidazole-1-carboxamide], in series [1] (pH 4.5), the pIC50 is over 6.70. For the same compound, the solubility in series [2] stood at 0.032 mg/mL (≈ 82.2 µM).

The compound `O=C(NCCOc1ccccc1)n1cnc2c(C(F)(F)F)cccc21` [Example 72, N-(2-Phenoxyethyl)-4-(trifluoromethyl)-1H-benzo[d]imidazole-1-carboxamide] had a pIC50 in series [1] (setting [3]) of over 6.70. Besides, the concentration in solution in series [2] (solubility) was 0.002 mg/mL (≈ 5.73 µM).

The compound `CC(=O)N1CCN(c2cccc3c2ncn3C(=O)NCCCCC(C)C)CC1` [Example 223, 4-(4-Acetylpiperazin-1-yl)-N-(5-methylhexyl)-1H-benzo[d]imidazole-1-carboxamide] gave a negative logarithm of the IC50 (pIC50) in series [1] (pH 4.5) of over 6.70. This compound registered a solubility in series [2] of 0.015 mg/mL (≈ 38.9 µM).

Regarding `O=C(NCCCc1ccccc1)n1cnc2c(N3CCC3)cccc21` [Example 279, 4-(Azetidin-1-yl)-N-(3-phenylpropyl)-1H-benzo[d]-imidazole-1-carboxamide], the pIC50 in series [1] (pH 4.5) is over 6.70. Further, in series [2], the solubility is 0.001 mg/mL (≈ 2.99 µM).

The values are drawn from patent publication US20220380319A1 (Bial - R&D Investments, S.A., priority 2019, published 2022).
